In ChEMBL document CHEMBL3217626, “Identification of 4,6-diaryl-1,4-dihydropyridines as a new class of neuroprotective agents” (Medchemcomm, 2013):

What was measured:
SH-SY5Y [1] = test: Neuroprotective activity in human SH-SY5Y cells under oxygen and glucose deprived condition assessed as cell survival at 5 uM co-incubated for 4 hrs under anaerobic condition measured after 20 hrs by MTT assay relative to control; assay type: functional; details: read-out: Survival
SH-SY5Y [2] = test: Neuroprotective activity in human SH-SY5Y cells under serum-free condition assessed as cell survival at 5 uM after 24 hrs by MTT assay in presence of potassium relative to control; assay type: functional; details: read-out: Survival
SH-SY5Y [3] = test: Neuroprotective activity in human SH-SY5Y cells assessed as inhibition of potassium-induced Ca2+ increase at 10 uM preincubated for 15 mins followed by potassium addition measured for 14 seconds by fluorescence assay relative to control; assay type: functional
SH-SY5Y [4] = test: Neuroprotective activity in human SH-SY5Y cells under serum-free condition assessed as protection against potassium-induced toxicity at 5 uM after 24 hrs by MTT assay relative to control; assay type: functional
SH-SY5Y [5] = test: Neuroprotective activity in human SH-SY5Y cells under oxygen and glucose deprived condition assessed as protection against oxidative stress at 5 uM co-incubated for 4 hrs under anaerobic condition measured after 20 hrs by MTT assay relative to control; assay type: functional
SH-SY5Y [6] = test: Neuroprotective activity in human SH-SY5Y cells under oxygen and glucose deprived condition assessed as cell survival at 0.3 uM co-incubated for 4 hrs under anaerobic condition measured after 20 hrs by MTT assay relative to control; assay type: functional; details: read-out: Survival
SH-SY5Y [7] = test: Neuroprotective activity in human SH-SY5Y cells under serum-free condition assessed as protection against potassium-induced toxicity at 0.3 uM after 24 hrs by MTT assay relative to control; assay type: functional
SH-SY5Y [8] = test: Neuroprotective activity in human SH-SY5Y cells under serum-free condition assessed as cell survival at 0.3 uM after 24 hrs by MTT assay in presence of potassium relative to control; assay type: functional; details: read-out: Survival
SH-SY5Y [9] = test: Neuroprotective activity in human SH-SY5Y cells under oxygen and glucose deprived condition assessed as protection against oxidative stress at 0.3 uM co-incubated for 4 hrs under anaerobic condition measured after 20 hrs by MTT assay relative to control; assay type: functional
SH-SY5Y [10] = test: Neuroprotective activity in human SH-SY5Y cells assessed as inhibition of potassium-induced Ca2+ increase preincubated for 15 mins followed by potassium addition measured for 14 seconds by fluorescence assay; assay type: functional, cell-based
SH-SY5Y [11] = test: Neuroprotective activity in human SH-SY5Y cells under oxygen and glucose deprived condition assessed as cell survival at 0.1 uM co-incubated for 4 hrs under anaerobic condition measured after 20 hrs by MTT assay relative to control; assay type: functional; details: read-out: Survival
SH-SY5Y [12] = test: Neuroprotective activity in human SH-SY5Y cells under oxygen and glucose deprived condition assessed as protection against oxidative stress at 0.1 uM co-incubated for 4 hrs under anaerobic condition measured after 20 hrs by MTT assay relative to control; assay type: functional

Compound: CC(=O)C1=C(C)NC(c2ccccc2)=CC1c1ccccc1 (stereo unspecified)
- viability at 5 µM (SH-SY5Y [1]): 53.9%
- viability at 5 µM (SH-SY5Y [2]): 67.4%
- inhibition at 10 µM (SH-SY5Y [3]): 33.8%
- Activity (SH-SY5Y [4]): 32.46%
- Activity (SH-SY5Y [5]): 9.06%

Compound: CC1=C(C(=O)SC(C)(C)C)C(c2ccc(C)cc2)C=C(c2ccccc2)N1 (stereo unspecified)
- viability at 5 µM (SH-SY5Y [1]): 64.7%
- viability at 5 µM (SH-SY5Y [2]): 67.4%
- inhibition at 10 µM (SH-SY5Y [3]): 36.8%
- Activity (SH-SY5Y [4]): 30.44%
- Activity (SH-SY5Y [5]): 31.16%

Compound: CCOC(=O)C1=C(C)NC(c2ccc(Cl)cc2)=CC1c1ccccc1 (stereo unspecified)
- viability at 5 µM (SH-SY5Y [1]): 58.9%
- viability at 5 µM (SH-SY5Y [2]): 69.3%
- inhibition at 10 µM (SH-SY5Y [3]): 44.9%
- Activity (SH-SY5Y [4]): 36.57%
- Activity (SH-SY5Y [5]): 19.26%

Compound: COC(=O)C1=C(C)NC(C)=C(C(=O)OC)C1c1ccccc1[N+](=O)[O-] [NIFEDIPINE]
- viability at 0.3 µM (SH-SY5Y [6]): 55%
- Activity (SH-SY5Y [7]): 15.76%
- viability at 0.3 µM (SH-SY5Y [8]): 58.7%
- inhibition at 10 µM (SH-SY5Y [3]): 59.8%
- Activity (SH-SY5Y [9]): 12.4%

Compound: O=C1CCCC2=C1C(c1ccccc1)C=C(c1ccccc1)N2 (stereo unspecified)
- viability at 5 µM (SH-SY5Y [1]): 62.1%
- viability at 5 µM (SH-SY5Y [2]): 66.4%
- inhibition at 10 µM (SH-SY5Y [3]): 41.2%
- Activity (SH-SY5Y [4]): 28.23%
- Activity (SH-SY5Y [5]): 26.8%

Compound: CC1=C(C(=O)SC(C)(C)C)C(/C(C)=C/c2ccccc2)C=C(c2ccccc2)N1 (stereo unspecified)
- viability at 5 µM (SH-SY5Y [1]): 63.9%
- viability at 5 µM (SH-SY5Y [2]): 69%
- inhibition at 10 µM (SH-SY5Y [3]): 40%
- Activity (SH-SY5Y [4]): 35.26%
- Activity (SH-SY5Y [5]): 35.82%

Compound: CCOC(=O)C1=C(C)NC(c2ccc(C)cc2)=CC1c1cccs1 (stereo unspecified)
- viability at 5 µM (SH-SY5Y [1]): 64.7%
- viability at 5 µM (SH-SY5Y [2]): 75.6%
- inhibition at 10 µM (SH-SY5Y [3]): 36.6%
- Activity (SH-SY5Y [4]): 50.73%
- Activity (SH-SY5Y [5]): 31.04%

Compound: CCOC(=O)C1=C(C)NC(c2ccccc2)=CC1c1ccccc1 (stereo unspecified)
- viability at 5 µM (SH-SY5Y [1]): 60.8%
- viability at 5 µM (SH-SY5Y [2]): 67.6%
- inhibition at 10 µM (SH-SY5Y [3]): 32.5%
- Activity (SH-SY5Y [4]): 34.65%
- Activity (SH-SY5Y [5]): 22.76%

Compound: CC1=C(C(=O)SC(C)(C)C)C(c2ccccc2)C=C(c2ccccc2)N1 (stereo unspecified)
- viability at 5 µM (SH-SY5Y [1]): 61.5%
- viability at 5 µM (SH-SY5Y [2]): 68%
- inhibition at 10 µM (SH-SY5Y [3]): 35.1%
- Activity (SH-SY5Y [4]): 34.13%
- Activity (SH-SY5Y [5]): 24.91%

Compound: COc1ccc(C2C=C(c3ccccc3)NC(C)=C2C(=O)SC(C)(C)C)cc1 (stereo unspecified)
- viability at 5 µM (SH-SY5Y [1]): 57.6%
- viability at 5 µM (SH-SY5Y [2]): 66.7%
- inhibition at 10 µM (SH-SY5Y [3]): 52.3%
- IC50 (SH-SY5Y [10]): 26.8 µM
- inhibition (SH-SY5Y [10]): Dose-dependent effect
- Activity (SH-SY5Y [4]): 31.27%
- Activity (SH-SY5Y [5]): 17.38%

Compound: CC1=C(C(=O)SC(C)(C)C)C(c2ccc(C)cc2)C=C(c2ccc(C)cc2)N1 (stereo unspecified)
- viability at 5 µM (SH-SY5Y [1]): 56%
- viability at 5 µM (SH-SY5Y [2]): 69.8%
- inhibition at 10 µM (SH-SY5Y [3]): 12.6%
- Activity (SH-SY5Y [4]): 36.24%
- Activity (SH-SY5Y [5]): 12.66%

Compound: CC1=C(C(=O)SC(C)(C)C)C(c2ccc(Br)cc2)C=C(c2ccc(C)cc2)N1 (stereo unspecified)
- viability at 5 µM (SH-SY5Y [1]): 60.3%
- viability at 5 µM (SH-SY5Y [2]): 67.2%
- inhibition at 10 µM (SH-SY5Y [3]): 35.4%
- Activity (SH-SY5Y [4]): 34.46%
- Activity (SH-SY5Y [5]): 21.83%

Compound: CCOC(=O)C1=C(CC)NC(c2ccccc2)=CC1c1ccccc1 (stereo unspecified)
- viability at 5 µM (SH-SY5Y [1]): 57.6%
- viability at 5 µM (SH-SY5Y [2]): 67.3%
- inhibition at 10 µM (SH-SY5Y [3]): 53.8%
- IC50 (SH-SY5Y [10]): 12.8 µM
- inhibition (SH-SY5Y [10]): Dose-dependent effect
- Activity (SH-SY5Y [4]): 31.37%
- Activity (SH-SY5Y [5]): 17.69%

Compound: COc1ccc2[nH]cc(CCNC(C)=O)c2c1 [MELATONIN]
- viability at 0.1 µM (SH-SY5Y [11]): 65.8%
- Activity (SH-SY5Y [12]): 28.85%
